Laboratory results as given in patent publication US8536216B2, “Compositions based on aminoacids” (Professional Dietetics S.R.L., priority 2000, dated 2013).
Where two headings read alike, the source gives them in different places.

Legend:
[1] = Amino acids plasma modifications induced by acute ingestion of the mixture
[2] = human, in vivo
athletes = test: Comparative study in athletes: bench press, squat Romano, maximal power on braked bicycle ergometer; type: in vivo, human
Source text: The effects on energy balance of the an amino acids mixture according to the invention as above indicated were the subject of a comparative study with creatine, on a weight ratio (w/w), or with no treatment, on a large group of volunteers submitted to a rigid protocol of alimentation and training.

[3] = 15' after acute ingestion of the mixture according to the invention
[4] = 30' after acute ingestion of the mixture according to the invention
[5] = 60' after acute ingestion of the mixture according to the invention

SMILES	Amino acid plasma level [1, 3]	Amino acid plasma level [1, 4]	Amino acid plasma level [1, 5]	Amino acid plasma level ([2]; 15 min)	Amino acid plasma level ([2]; 30 min)	Amino acid plasma level ([2]; 60 min)	Watt/Kg max (maximal power productive performance on a braked bicycle ergometer) (athletes; after one month of treatment and training, mixture 24 g/d, creatine 25 g/d)	Performances over basal and no treatment group (athletes; one month treatment and training)
N[C@@H](CCC(=O)O)C(=O)O [Glutamate]	563 ± 69	606 ± 32	502 ± 43					
CC(C)[C@H](N)C(=O)O [Valine]				256 ± 19	294 ± 32	249 ± 26		
N[C@@H](CCC(=O)O)C(=O)O [Glutamic acid]	42 ± 6	44 ± 7	41 ± 5					
CN(CC(=O)O)C(=N)N [creatine]							9.8 ± 0.6 watt/kg max	significant improvements of performances
CSCC[C@H](N)C(=O)O [Methionine]				30 ± 6	32 ± 9	27 ± 4		
CC[C@H](C)[C@H](N)C(=O)O [Isoleucine]				156 ± 24	162 ± 31	147 ± 32		
N[C@@H](CS)C(=O)O [Cysteine]				54 ± 6	61 ± 8	49 ± 7		
N=C(N)NCCC[C@H](N)C(=O)O [Arginine]				85 ± 15	97 ± 13	82 ± 16		
N[C@@H](Cc1ccccc1)C(=O)O [Phenylalanine]				56 ± 9	61 ± 10	55 ± 7		
N[C@@H](Cc1ccc(O)cc1)C(=O)O [Tyrosine]				62 ± 9	65 ± 14	59 ± 7		
CC(C)C[C@H](N)C(=O)O [Leucine]				68 ± 16	109 ± 19	71 ± 9		
C[C@@H](O)[C@H](N)C(=O)O [Threonine]				121 ± 15	137 ± 21	120 ± 16		
NCCCC[C@H](N)C(=O)O [Lysine]				182 ± 17	194 ± 26	179 ± 18		
